One test concerns the target T1, TDO (A172 cells) (Homo sapiens, UniProt P48775).
T1 construct: This assay utilised cancer cells which expressed either TDO or IDO; host or cells: A172 human glioblastoma cells
In words: TDO cell-based assay (A172), kynurenine production. As to conditions: A172 human glioblastoma cells, 500 μM L-Trp, 48 h, kynurenine by absorbance at 490 nm. The gist of the method:
(§1)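 Kynurenine output was read at 490 nm after 5 min with 1% Ehrlich's reagent, using supernatants from 48 h, 37 °C cultures containing 500 μM L-Trp and test compound. TDO activity came from A172 cells. IDO activity came from SKOV-3 cells, whose expression was induced by adding 500 ng/ml IFNγ.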

The next test concerns the target T2, IDO (SKOV-3 cells) (Homo sapiens, UniProt P14902).
T2 construct: This assay utilised cancer cells which expressed either TDO or IDO; host or cells: SKOV-3 ovary adenocarcinoma cells, IFNγ-induced
In words: IDO cell-based assay (SKOV-3, IFNγ-induced), kynurenine production. The conditions noted are these: SKOV-3 ovary adenocarcinoma cells, IFNγ 500 ng/ml, 500 μM L-Trp, 48 h, kynurenine by absorbance at 490 nm. The gist of the method:
as §1

The target of a further test is human IDO protein (Homo sapiens, UniProt P14902). In words: IDO biochemical coupled assay (hIDO). As to conditions: 0.17 μM human IDO protein, biochemical coupled assay with formamidase. The source says: (§2) Two different types of assay were employed: 1. A TDO and IDO biochemical coupled assay which utilised recombinantly produced and purified TDO and IDO enzymes in combination with the enzyme formamidase. This coupled enzyme system allowed conversion of N-formylkynurenine produced by TDO or IDO activity to kynurenine which was then quantified by fluorescence following addition of Erhlich's Reagent. 2. A cell-based assay for detecting the effect of test compounds on kynurenine production in two different cancer cell types. This assay utilised cancer cells which expressed either TDO or IDO and as such was used as a means of testing compound activity at these two enzymes in a cell-based context. The protocols for these are set out below.
0.17 μM of human IDO protein was pre-incubated for 10 min or 120 min at RT with test compounds in the presence of 50 mM KPO4, pH 7.0, 0.5 mM EDTA, 0.5 mM EGTA, 0.05% Triton X-100, 20 mM ascorbate, 500 U/ml catalase, 10 μM methylene blue at RT in a 384 well plate. 0.05 μg/μl kynurenine formamidase and 45 μM or 121 μM L-tryptophan (L-Trp) were added and the assays were incubated at RT for 17 min. Assays were stopped and the level of kynurenine was determined by incubation with Ehrlich's reagent to a final concentration of 1.33% at RT for 5 min. Fluorescence intensity was read at 475 nm/530 nm.

A further test concerns the target human TDO protein (Homo sapiens, UniProt P48775). Put plainly: TDO biochemical coupled assay (hTDO). The conditions noted are these: 2 μM human TDO protein, biochemical coupled assay with formamidase; read-out: pIC50 in the hTDO test (converted).
From the text: as §2
2 μM of human TDO protein was pre-incubated for 10 minutes at RT with test compounds in the presence of 50 mM KH2PO4, pH 7.0, 0.5 mM EDTA, 0.5 mM EGTA, 0.05% Triton X-100, 20 mM ascorbate, 500 U/ml catalase, 10 μM methylene blue at RT in a 384 well plate. 0.05 μg/μl kynurenine formamidase and 330 μM or 178 μM L-tryptophan were added and the assays were incubated at room temperature (RT) for 17 min. Assays were stopped and the level of kynurenine was determined by incubation with Ehrlich's reagent to a final concentration of 1.33% at RT for 5 min. Fluorescence intensity was read at 475 nm/530 nm.

T1 sequence (P48775 whole entry): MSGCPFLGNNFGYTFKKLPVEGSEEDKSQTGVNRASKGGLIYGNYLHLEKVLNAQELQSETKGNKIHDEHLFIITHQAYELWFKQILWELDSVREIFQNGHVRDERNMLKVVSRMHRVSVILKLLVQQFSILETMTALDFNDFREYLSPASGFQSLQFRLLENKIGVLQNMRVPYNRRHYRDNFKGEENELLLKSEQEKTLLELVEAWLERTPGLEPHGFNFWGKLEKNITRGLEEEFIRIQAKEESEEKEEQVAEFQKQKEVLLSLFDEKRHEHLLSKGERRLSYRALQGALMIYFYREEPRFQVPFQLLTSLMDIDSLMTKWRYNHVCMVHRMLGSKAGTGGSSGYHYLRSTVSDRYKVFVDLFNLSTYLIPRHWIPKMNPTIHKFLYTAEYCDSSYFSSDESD
T2 sequence (P14902 whole entry): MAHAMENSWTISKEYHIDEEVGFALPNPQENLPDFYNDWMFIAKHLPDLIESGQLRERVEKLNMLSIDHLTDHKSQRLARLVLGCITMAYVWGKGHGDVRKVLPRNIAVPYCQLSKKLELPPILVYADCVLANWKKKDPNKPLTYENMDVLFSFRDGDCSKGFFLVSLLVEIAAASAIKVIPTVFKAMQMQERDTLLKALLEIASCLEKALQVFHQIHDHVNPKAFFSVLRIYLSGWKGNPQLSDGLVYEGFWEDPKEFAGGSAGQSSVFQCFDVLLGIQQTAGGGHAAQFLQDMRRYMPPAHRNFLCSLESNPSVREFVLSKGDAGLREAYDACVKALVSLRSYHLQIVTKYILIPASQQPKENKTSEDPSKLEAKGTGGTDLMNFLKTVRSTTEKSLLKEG
human IDO protein, sequence (P14902 whole entry): as above
human TDO protein, sequence (P48775 whole entry): as the sequence (P48775 whole entry) above

`O=C(Nc1cccnc1)c1cc2ccccc2[nH]1` [REF, reference compound]: the IC50 at TDO (A172 cells) (read-out: TDO cellular assay (A172) pIC50 (converted)) is over 31.6 µM; at IDO (SKOV-3 cells) (read-out: IDO cellular assay (SKOV3) pIC50 (converted)) it was over 31.6 µM; on human IDO protein (read-out: pIC50 in the hIDO assay (converted)), over 102 µM; at human TDO protein, over 102 µM.
Turning to `CC(NC(=O)c1cc2cc(Cl)ccc2[nH]1)c1ccc(C(=O)N(C)C)cc1` (stereo not shown) [Compound 83], the “TDO cellular assay (A172) pIC50” value at TDO (A172 cells) was “− (− = pIC50 <4.50)”. In addition, the “IDO cellular assay (SKOV3) pIC50” value at IDO (SKOV-3 cells) is on record as “+++ (+++ = pIC50 ≥5.50)”. The “pIC50 in the hIDO assay” value at human IDO protein is given as 5.24.
For `C[C@H](c1ccccc1)N(C)C(=O)c1cc2cc(F)ccc2[nH]1` [Compound 39], on TDO (A172 cells), the “TDO cellular assay (A172) pIC50” value is listed as “− (− = pIC50 <4.50)”. Besides, the “IDO cellular assay (SKOV3) pIC50” value on IDO (SKOV-3 cells) is “++ (++ = pIC50 5.00-<5.50)”.
On the same counts, the results for `O=C(NC1(c2cocn2)CC1)c1cc2cc(Cl)ccc2[nH]1` [Compound 274] are “− (− = pIC50 <4.50)” and “+++ (+++ = pIC50 ≥5.50)”.
As for `CC(NC(=O)c1cc2c(F)c(Cl)ccc2[nH]1)c1cnn(C)c1` (stereo not shown) [Compound 193], the “TDO cellular assay (A172) pIC50” value at TDO (A172 cells) was “− (− = pIC50 <4.50)”. Moreover, the “IDO cellular assay (SKOV3) pIC50” value at IDO (SKOV-3 cells) is recorded as “+++ (+++ = pIC50 ≥5.50)”.
On the same counts, the results for `Cc1ccc2[nH]c(C(=O)NC(C)c3cccc(F)c3)cc2c1` (stereo not shown) [Compound 15] are “++ (++ = pIC50 5.00-<5.50)” and “+++ (+++ = pIC50 ≥5.50)”.
On the same counts, the results for `C[C@@H](NC(=O)c1cc2cc(Cl)cc(F)c2[nH]1)c1ccccc1` [Compound 174] are “++ (++ = pIC50 5.00-<5.50)” and “+++ (+++ = pIC50 ≥5.50)”.
In the case of `CCN(Cc1noc(CC(C)C)n1)C(=O)c1cc2cc(Cl)ccc2[nH]1` [Compound 117], the “TDO cellular assay (A172) pIC50” value on TDO (A172 cells) is on record as “+ (+ = pIC50 4.50-<5.00)”. Moreover, the “IDO cellular assay (SKOV3) pIC50” value at IDO (SKOV-3 cells) is on record as “++ (++ = pIC50 5.00-<5.50)”.
`O=C(NC1(c2ccccc2)CCCC1)c1cc2cc(Cl)ccc2[nH]1` [Compound 230]: on TDO (A172 cells), the “TDO cellular assay (A172) pIC50” value is “− (− = pIC50 <4.50)”. The “IDO cellular assay (SKOV3) pIC50” value on IDO (SKOV-3 cells) was “+++ (+++ = pIC50 ≥5.50)”.
On the same counts, the results for `O=C(NC1(c2ccccc2)CC1)c1cc2cc(C(F)(F)F)ccc2[nH]1` [Compound 156] are “− (− = pIC50 <4.50)” and “+++ (+++ = pIC50 ≥5.50)”.
On the same counts, the results for `CCOc1ccc2[nH]c(C(=O)NC3(c4cnn(C)c4)CC3)cc2c1` [Compound 273] are “− (− = pIC50 <4.50)” and “+++ (+++ = pIC50 ≥5.50)”.
For the compound `Cc1cccc2[nH]c(C(=O)NC(C)c3ccccc3)cc12` (stereo not shown) [Compound 77], on TDO (A172 cells), the “TDO cellular assay (A172) pIC50” value is “+ (+ = pIC50 4.50-<5.00)”. On IDO (SKOV-3 cells), the “IDO cellular assay (SKOV3) pIC50” value is given as “+++ (+++ = pIC50 ≥5.50)”.
Take `C[C@H](NC(=O)c1cc2c(F)cccc2[nH]1)c1ccccc1` [Compound 56]: the “TDO cellular assay (A172) pIC50” value on TDO (A172 cells) is listed as “+ (+ = pIC50 4.50-<5.00)”. Further, the “IDO cellular assay (SKOV3) pIC50” value at IDO (SKOV-3 cells) was “+ (+ = pIC50 4.50-<5.00)”.
On to `COc1ccc2cc(C(=O)NC3(c4ccccc4)CC3)[nH]c2c1` [Compound 162], for which, at TDO (A172 cells), the “TDO cellular assay (A172) pIC50” value is on record as “− (− = pIC50 <4.50)”. The “IDO cellular assay (SKOV3) pIC50” value on IDO (SKOV-3 cells) was “++ (++ = pIC50 5.00-<5.50)”.
Turning to `C[C@@H](NC(=O)c1cc2cc(Cl)cnc2[nH]1)c1ccccc1` [Compound 163], the “TDO cellular assay (A172) pIC50” value at TDO (A172 cells) is given as “− (− = pIC50 <4.50)”. The “IDO cellular assay (SKOV3) pIC50” value on IDO (SKOV-3 cells) was “+ (+ = pIC50 4.50-<5.00)”.
Consider `O=C(NC(c1ccccc1)C1CC1)c1cc2c(F)cccc2[nH]1` (stereo not shown) [Compound 12], for which, on TDO (A172 cells), the “TDO cellular assay (A172) pIC50” value is “− (− = pIC50 <4.50)”. Besides, the “IDO cellular assay (SKOV3) pIC50” value at IDO (SKOV-3 cells) is reported as “+++ (+++ = pIC50 ≥5.50)”.
As to `O=C(NC1(c2ccccc2)COC1)c1cc2cc(Cl)ccc2[nH]1` [Compound 142], the “TDO cellular assay (A172) pIC50” value on TDO (A172 cells) was “+ (+ = pIC50 4.50-<5.00)”. In addition, the “IDO cellular assay (SKOV3) pIC50” value at IDO (SKOV-3 cells) is on record as “+++ (+++ = pIC50 ≥5.50)”.
On the same counts, the results for `CC(NC(=O)c1cc2cc(Cl)ccc2[nH]1)c1ccc(C(=O)N2CCOCC2)cc1` (stereo not shown) [Compound 90] are “− (− = pIC50 <4.50)” and “+++ (+++ = pIC50 ≥5.50)”.
For the compound `CCn1cc(C2(NC(=O)c3cc4cc(Cl)ccc4[nH]3)CC2)cn1` [Compound 214], the “TDO cellular assay (A172) pIC50” value on TDO (A172 cells) is listed as “− (− = pIC50 <4.50)”. Also, on IDO (SKOV-3 cells), the “IDO cellular assay (SKOV3) pIC50” value is listed as “+++ (+++ = pIC50 ≥5.50)”.
For the compound `C[C@@H](NC(=O)c1cc2ccc(O)cc2[nH]1)c1ccccc1` [Compound 185], the “TDO cellular assay (A172) pIC50” value at TDO (A172 cells) is reported as “+ (+ = pIC50 4.50-<5.00)”. On IDO (SKOV-3 cells), the “IDO cellular assay (SKOV3) pIC50” value is listed as “+ (+ = pIC50 4.50-<5.00)”.
For `C[C@@H](NC(=O)c1cc2cc(Br)ccc2[nH]1)c1ccccc1` [Compound 252], the “TDO cellular assay (A172) pIC50” value on TDO (A172 cells) was “− (− = pIC50 <4.50)”. In addition, at IDO (SKOV-3 cells), the “IDO cellular assay (SKOV3) pIC50” value was “+++ (+++ = pIC50 ≥5.50)”.
Turning to `COc1ccc2[nH]c(C(=O)NC(C)c3cnn(C)c3)cc2c1` (stereo not shown) [Compound 186], the “TDO cellular assay (A172) pIC50” value at TDO (A172 cells) was “− (− = pIC50 <4.50)”. At IDO (SKOV-3 cells), the “IDO cellular assay (SKOV3) pIC50” value is “+++ (+++ = pIC50 ≥5.50)”.
Take `Cn1cc(C2(NC(=O)c3cc4cc(Cl)c(F)cc4[nH]3)CC2)cn1` [Compound 204]: at TDO (A172 cells), the “TDO cellular assay (A172) pIC50” value is given as “− (− = pIC50 <4.50)”. Besides, at IDO (SKOV-3 cells), the “IDO cellular assay (SKOV3) pIC50” value is recorded as “+++ (+++ = pIC50 ≥5.50)”.
On the same counts, the results for `Cc1nc(C(C)NC(=O)c2cc3cc(Cl)ccc3[nH]2)co1` (stereo not shown) [Compound 200] are “− (− = pIC50 <4.50)” and “+++ (+++ = pIC50 ≥5.50)”.
For the compound `CC(NC(=O)c1cc2cc(OCc3ccccc3)ccc2[nH]1)c1cnn(C)c1` (stereo not shown) [Compound 239], the “TDO cellular assay (A172) pIC50” value on TDO (A172 cells) was “− (− = pIC50 <4.50)”. The “IDO cellular assay (SKOV3) pIC50” value at IDO (SKOV-3 cells) is given as “+ (+ = pIC50 4.50-<5.00)”.
Turning to `C[C@H](NS(=O)(=O)c1cc2cc(F)ccc2[nH]1)c1ccccc1` [Compound 123], the “TDO cellular assay (A172) pIC50” value on TDO (A172 cells) is “+ (+ = pIC50 4.50-<5.00)”. Besides, the “IDO cellular assay (SKOV3) pIC50” value at IDO (SKOV-3 cells) is recorded as “++ (++ = pIC50 5.00-<5.50)”.
